Measurements as given in article PMC9917735, “Optimization of the Hemolysis Assay for the Assessment of Cytotoxicity” (International Journal of Molecular Sciences, 2023).
Read-outs that look alike come from different tables or passages of the source. No end group written: not given here.

Experiments:
human whole blood = conditions: human whole blood, 60 min 37 °C; for Calculated hemolysis ratio: peptides 100 μM, neg. PBS, 3 x 2 replicates
[1] = tested on: washed human erythrocytes; experiment: Hemolysis assay, washed human erythrocytes
[2] = tested on: washed human erythrocytes; experiment: Flow cytometry of treated erythrocytes with live/dead amine-reactive stain; assay type: cell-based; conditions: washed human erythrocytes treated 60 minutes, AMPs 100 μM, amine-reactive dye 488, flow cytometry 533/30 nm
Method: Briefly, a 1% washed erythrocyte solution was diluted to ~10^5 cells/mL and 0.4% Trypan blue (1:1 ratio) was added before 10 μL of the stained cell suspension was added to the Countess cell counting chamber slide. After a 30 s incubation, the slide was inserted into the instrument for automatic cell counting.
The Countess II automated cell counter (see above) was used to adjust the negative control sample to ~10^5 cells/mL and to subsequently dilute all samples by the same factor. Then, 0.5 μL of live/dead amine-reactive dye 488 (Fisher Scientific, Waltham, MA, USA) was added to 0.5 mL cell suspension and incubated for 30 min protected from light. Subsequently, the samples were washed twice with PBS pH 7 containing 1% bovine serum albumin (BSA), and finally resuspended in PBS pH 7 with 1% BSA. Cells were next counted, and the fluorescence measured using the 533/30 nm filter in an Accuri C6 flow cytometer (BD Biosciences, Franklin Lakes, NJ, USA).

rabbit whole blood = conditions: cf. Tables S3 and S4; 100 μM
Text: (§1) Cytotoxicity studies are important during characterization of novel compounds or materials intended for interactions within human biological systems in vivo. Evaluation of the extent to which the compound induces disruption of the membrane of erythrocytes (red blood cells), thereby causing release of cellular content, often constitutes an initial step in such cytotoxicity assessments. The assay used in this context is generally referred to as the hemolysis assay, which has the advantages of being cheap, accessible, and simple to perform. Blood is drawn from a human or an animal, and next, the washed erythrocytes are incubated together with the compound or material under investigation. If the compound causes hemolysis, hemoglobin (along with other cellular constituents) will be released into the supernatant.
(§2) Blood from mice, rats, and rabbits was provided by the Department of Comparative Medicine at Oslo University Hospital (Marianne Aannestad). For mice and rats, the blood was collected from the heart by using 25 G and 21 G needles, respectively, whereas for rabbits, the blood was collected by free bleed through the ear using a yellow neoflon (24 G). All animals were wild type and anesthetized prior to the procedure.
(§3) All blood was collected in Lithium Heparin tubes 4 mL (Greiner Bio-One, Kremsmünster, Austria) or Coagulation sodium citrate 3.2% tubes 3 mL (Greiner Bio-One).
(§4) AMP 2 contained an N-terminal hexanoic acid moiety, whereas all peptides contained amidated C-termini. These three peptides were synthesized by Genscript Inc. (Piscataway, NJ, USA), and stock solutions of 1 mg/mL were made from the purchased powders. […] All peptides were diluted to yield a 100 μM final concentration in the hemolysis assays.
(§5) Triton X-100 (T8787) and Tween-20 (P2287) detergents were purchased from Sigma Aldrich and diluted to obtain 10% stock solutions by weighing (w/v). A sodium Dodecyl Sulfate (SDS) 10% solution was purchased from Invitrogen (Waltham, MA, USA, 15553027). All subsequent dilutions annotated in figures were made from these stocks.
(§6) As soon as possible after phlebotomy, the blood samples were centrifuged at 1700× g for 5 min. The supernatant was removed by aspiration and 2 mL of PBS pH 7 was added. The washing step was repeated three times or until the supernatant was clear. After final aspiration, the remaining pellet was diluted 1:100 in PBS pH 7 to obtain a 1% erythrocyte suspension (or 1:100, 1:50, and 1:20 for assays testing the effect of erythrocyte concentration). For experiments using whole blood, the washing steps were not performed, but downstream experimentation was identical. For experiments performed with 96-well plates, 50 μL of test compound, water, or detergent were mixed with 50 μL of blood sample (1% erythrocyte suspension or whole blood). For experiments using larger volumes, 250 μL of test compound, water, or detergent were mixed with 250 μL blood sample in an Eppendorf tube. Samples were subsequently incubated at 37 °C for 60 min (or 15, 30, 60, 90, or 120 min for assays evaluating the effect of incubation time). After incubation, the plates/tubes were centrifuged at 1700× g for 5 min, and then 50 μL of the supernatants were transferred to transparent, flat-bottom 96-well plates (Anicrin, A013418). Finally, absorption was measured at 405, 530, and 570 nm in a Victor Nivo Multimode microplate reader (Perkin Elmer, Waltham, MA, USA).

mouse erythrocytes = conditions: Table 1, 1% erythrocytes, 100 µM
Text: as §1, §2, §3, §4, §5, §6

rat erythrocytes = conditions: Table S4: washed rat erythrocytes, OD 405 nm, AMPs 100 μM, 1 hour 37 °C, pos. 10% Triton X-100, neg. PBS; 3 x 2 replicates
Text: as §1, §2, §3, §4, §5, §6

rabbit erythrocytes = conditions: Table S4: washed rabbit erythrocytes, OD 405 nm, AMPs 100 μM, 1 hour 37 °C, pos. 10% Triton X-100, neg. PBS; 3 x 2 replicates
Text: as §1, §2, §3, §4, §5, §6

[3] = cited from earlier work
Method: OD measurements of human whole blood treated with hemolyzing agents or AMPs at 405 nm (A), 530 nm (B), and 570 nm (C) were recorded (Figure 6) and HRs calculated (Table 5). For comparison, we also included the two previously well-characterized AMPs melittin and polymyxin B, which exert high and low cytotoxicity, respectively. […] From 530 and 570 nm measurements, the expected conce ...

[4] = 10% detergent, highest absorbance
[5] = OD 405 nm (signal saturated), pos. 10% SDS
[6] = OD 570 nm, pos. 10% Triton X-100 (table title; text says 10% SDS)
[7] = human individual # 1, 1% erythrocytes, AMPs 100 µM, 60 min 37 °C, 405 nm, pos. 10% Triton X, neg. PBS, 3 x 2 replicates
[8] = human individual # 2, 1% erythrocytes, AMPs 100 µM, 60 min 37 °C, 405 nm, pos. 10% Triton X, neg. PBS, 3 x 2 replicates
[9] = human individual # 3, 1% erythrocytes, AMPs 100 µM, 60 min 37 °C, 405 nm, pos. 10% Triton X, neg. PBS, 3 x 2 replicates
[10] = human individual # 4, 1% erythrocytes, AMPs 100 µM, 60 min 37 °C, 405 nm, pos. 10% Triton X, neg. PBS, 3 x 2 replicates
[11] = human individual # 5, 1% erythrocytes, AMPs 100 µM, 60 min 37 °C, 405 nm, pos. 10% Triton X, neg. PBS, 3 x 2 replicates
[12] = human individual # 6, 1% erythrocytes, AMPs 100 µM, 60 min 37 °C, 405 nm, pos. 10% Triton X, neg. PBS, 3 x 2 replicates
[13] = human individual # 7, 1% erythrocytes, AMPs 100 µM, 60 min 37 °C, 405 nm, pos. 10% Triton X, neg. PBS, 3 x 2 replicates
[14] = human individual # 8, 1% erythrocytes, AMPs 100 µM, 60 min 37 °C, 405 nm, pos. 10% Triton X, neg. PBS, 3 x 2 replicates
[15] = human individual # 9, 1% erythrocytes, AMPs 100 µM, 60 min 37 °C, 405 nm, pos. 10% Triton X, neg. PBS, 3 x 2 replicates
[16] = human individual # 10, 1% erythrocytes, AMPs 100 µM, 60 min 37 °C, 405 nm, pos. 10% Triton X, neg. PBS, 3 x 2 replicates

In the case of `CCCCCCCCCCCCOS(=O)(=O)[O-].[Na+]` [SDS, Sodium Dodecyl Sulfate, reference compound], the “Absorbance of free hemoglobin at 530 nm” value (human whole blood; [4]) is reported as 2.2, the “Absorbance of free hemoglobin at 570 nm” value (human whole blood; [4]) is reported as 1.7 and the “Peak OD of free hemoglobin” value ([1]; at 0.02% detergent, human erythrocytes, decreases at higher concentrations (Figure S3)) is reported as 0,8.
With `O` [dH2O, distilled water] the Calculated hemolysis ratio (human whole blood; [5]) was 98.2 ± 0.4%, the Calculated hemolysis ratio (human whole blood; OD 530 nm, pos. 10% SDS) was 38.4 ± 8.5% and the Calculated hemolysis ratio (human whole blood; [6]) was 62.8 ± 1.4%. The “Fluorescence intensity per cell of remaining intact cells (live/dead stain)” value [2] was “low fluorescence”, the Calculated hemolysis ratio ([1]; 1% washed human erythrocytes, OD 530 nm, peptides 100 μM, 60 min 37 °C, pos. 10% Triton X-100, neg. PBS, 3 x 2 replicates) was 67.6 ± 8.7% and the “Calculated Hemolysis (%)” value ([1]; 2% pooled human erythrocytes, AMPs 100 µM, 60 min 37 °C, 405 nm, pos. 10% Triton X-100, neg. PBS, 3 x 2 replicates) was 27.1 ± 2.7%. For the same molecule, the “Calculated Hemolysis (%)” value ([1]; 5% pooled human erythrocytes, AMPs 100 µM, 60 min 37 °C, 405 nm, pos. 10% Triton X-100, neg. PBS, 3 x 2 replicates) was 22.7 ± 9%, the Calculated hemolysis ratio ([1]; Table 2: pooled blood from all 10 individuals, 1% erythrocytes, AMPs 100 µM, 60 min 37 °C, 405 nm, pos. 10% Triton X, neg. PBS, 3 x 2 replicates) was 32.6 ± 7.3% and the “Calculated Hemolysis (%)” value ([1]; Table 3: 1% pooled human erythrocytes, AMPs 100 µM, 60 min 37 °C, 405 nm, pos. 10% Triton X-100, neg. PBS, 3 x 2 replicates) was 32.6 ± 7.3%. For the same molecule, the Calculated hemolysis ratio ([1]; Table 4: incubation 60 min, 37 °C, 1% human erythrocytes, AMPs 100 µM, 405 nm, pos. 10% Triton X-100, neg. PBS, 3 biological x 2 technical replicates) was 37.1 ±14.2%, the Calculated hemolysis ratio ([1]; Table 6: 1% washed human erythrocytes, OD 405 nm, peptides 100 μM, 60 min 37 °C, pos. 10% Triton X-100, neg. PBS, 3 x 2 replicates) was 73.9 ± 7.5% and the Calculated hemolysis ratio [1, 7] was 38 ± 12.3%. The Calculated hemolysis ratio [1, 8] was 57.7 ± 12.2%, the Calculated hemolysis ratio [1, 9] was 50.8 ± 8.8% and the Calculated hemolysis ratio [1, 10] was 47.2 ± 5.6%. The Calculated hemolysis ratio [1, 11] was 38.8 ± 12.1%, the Calculated hemolysis ratio [1, 12] was 36.2 ± 10.8% and the Calculated hemolysis ratio [1, 13] was 49.6 ± 15.2%. The Calculated hemolysis ratio [1, 14] was 49.4 ± 16.9%, the Calculated hemolysis ratio [1, 15] was 49.1 ± 22.5% and the Calculated hemolysis ratio [1, 16] was 39.4 ± 10.7%. It also gave a Calculated hemolysis ratio ([1]; incubated in polypropylene tubes, 1% washed human erythrocytes, peptides 100 μM, 60 min 37 °C, 405 nm, pos. 10% Triton X-100, neg. PBS, 3 x 2 replicates) of 29.5 ± 6%, a Calculated hemolysis ratio ([1]; incubated in polystyrene tubes, 1% washed human erythrocytes, peptides 100 μM, 60 min 37 °C, 405 nm, pos. 10% Triton X-100, neg. PBS, 3 x 2 replicates) of 43.1 ± 18.6% and a Calculated hemolysis ratio ([1]; incubation 15 min, 37 °C, 1% human erythrocytes, AMPs 100 µM, 405 nm, pos. 10% Triton X-100, neg. PBS, 3 biological x 2 technical replicates) of 32.8 ± 12.1%. It also gave a Calculated hemolysis ratio ([1]; incubation 30 min, 37 °C, 1% human erythrocytes, AMPs 100 µM, 405 nm, pos. 10% Triton X-100, neg. PBS, 3 biological x 2 technical replicates) of 34.8 ± 12.7%, a Calculated hemolysis ratio ([1]; incubation 90 min, 37 °C, 1% human erythrocytes, AMPs 100 µM, 405 nm, pos. 10% Triton X-100, neg. PBS, 3 biological x 2 technical replicates) of 40.1 ±13.9% and a Calculated hemolysis ratio ([1]; incubation 120 min, 37 °C, 1% human erythrocytes, AMPs 100 µM, 405 nm, pos. 10% Triton X-100, neg. PBS, 3 biological x 2 technical replicates) of 47 ± 13.6%. The Calculated hemolysis ratio ([1]; total incubation volume 100 μL, 1% washed human erythrocytes, peptides 100 μM, 60 min 37 °C, 405 nm, pos. 10% Triton X-100, neg. PBS, 3 x 2 replicates) was 43.1 ± 18.6% and the Calculated hemolysis ratio ([1]; total incubation volume 500 μL, 1% washed human erythrocytes, peptides 100 μM, 60 min 37 °C, 405 nm, pos. 10% Triton X-100, neg. PBS, 3 x 2 replicates) was 31.4 ± 10.7%.
In the case of “MNLVDRAILIRKRRRAALQLRDKVLRYLK-NH2 [AMP 1]”, the “Minimum inhibitory concentration (E. coli)” value (E. coli) is reported as 2 µM, the “Fold difference in HR at 120 min incubation relative to the shortest incubation times” value ([1]; 1% washed human erythrocytes, 405 nm, Table 4) is reported as 1.65 fold and the Calculated hemolysis ratio [1, 7] is reported as 21.9 ± 4%. For the same molecule, the Calculated hemolysis ratio [1, 8] was 23 ± 2.8%, the Calculated hemolysis ratio [1, 9] was 23.7 ± 2.1% and the Calculated hemolysis ratio [1, 10] was 21.3 ± 3%. For the same molecule, the Calculated hemolysis ratio [1, 11] was 19.7 ± 3.7%, the Calculated hemolysis ratio [1, 12] was 19.6 ± 4.7% and the Calculated hemolysis ratio [1, 13] was 18.8 ± 4%. It also gave a Calculated hemolysis ratio [1, 14] of 21.7 ± 8.6%, a Calculated hemolysis ratio [1, 15] of 22.9 ± 6.8% and a Calculated hemolysis ratio [1, 16] of 25.1 ± 13%. For the same molecule, the “Observed hemolytic properties (qualitative)” value ([1]; reason for choice of the AMPs) was “medium”, the “Fold decrease of hemolytic effect in rabbit whole blood vs washed rabbit erythrocytes” value (rabbit whole blood) was “slightly increased hemolytic effect” and the “HR in mouse sample compared to rabbit sample” value (mouse erythrocytes) was “over four times higher”. For the same molecule, the Hemolysis ratio (rat erythrocytes) was 12.9 +/- 1.7% and the Hemolysis ratio (rabbit erythrocytes) was 7.1 +/- 1.1%.
Polymyxin B [PMB, reference compound] gave a Calculated hemolysis ratio (human whole blood; [5]) of 3.1 ± 1.1%, a Calculated hemolysis ratio (human whole blood; OD 530 nm, pos. 10% SDS) of 3 ± 2.4% and a Calculated hemolysis ratio (human whole blood; [6]) of 4.5 ± 1.8%. For the same molecule, the “Cytotoxicity (qualitative)” value [3] was “low”.
In the case of Tween-20 [reference compound], the “Blood clotting in whole blood” value (human whole blood; melittin 100 μM) is reported as “tendency of the blood to clot at higher Tween concentrations”.
